Reference: patent US20250215039A1, “NUCLEOSIDES FOR TREATING CANCER” (PRIMEFOUR THERAPEUTICS, INC., priority 2022, published 2025)
Like-named read-outs stand apart in the source and are kept apart here.

Test system: cancer cell lines
Test: Cancer cell proliferation activity (CellTiterGlo, 72 h)
Format: cell-based
Conditions: 72 h, 72 h, read-out: IC50 cell proliferation
How it was run: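 Readout is CellTiterGlo luminescence after 72 h compound exposure (0.1% DMSO final), started one day post-seeding, at 37 °C.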

C[C@]1(CO)O[C@@H](n2ccc(N)nc2=O)[C@@H](O)[C@@H]1O [Cpd. No. 193, 4-amino-1-((2R,3S,4S,5R)-3,4-dihydroxy-5-(hydroxymethyl)-5-methyltetrahydrofuran-2-yl)pyrimidin-2(1H)-one]
IC50 (5637 (bladder)): > 50 µM
IC50 (CLS439 (bladder)): > 50 µM
IC50 (HS729 (muscle)): 5.86 µM
IC50 (J82 (bladder)): 5.54 µM
IC50 (JAR (placenta)): > 50 µM
IC50 (MT3 (breast)): 0.58 µM
IC50 (PANCI (pancreas)): 3.6 µM
IC50 (PC3 (prostate)): 2.04 µM
IC50 (RD (muscle)): > 50 µM
IC50 (T24 (bladder)): 2.32 µM
IC50 (Homo sapiens, 22Rv1, 72 h, 22RV1 (prostate)): 5.77 µM
IC50 (Homo sapiens, 786-0, 72 h, 786O (kidney)): 9.53 µM
IC50 (Homo sapiens, A204, 72 h, A204 (muscle)): 0.06 µM
IC50 (Homo sapiens, A549, 72 h, A549 (lung)): 2.32 µM
IC50 (Homo sapiens, A673, 72 h, A673 (bone)): 3.26 µM
IC50 (Homo sapiens, A2780, 72 h, A2780 (ovary)): 3.47 µM
IC50 (Homo sapiens, A-375, 72 h, A375 (skin)): 3.61 µM
IC50 (Homo sapiens, A-431, 72 h, A431 (skin)): 2.52 µM
IC50 (Homo sapiens, ACHN, ACHN (kidney)): 2.82 µM
IC50 (Homo sapiens, ASPC1, 72 h, ASPC1 (pancreas)): > 50 µM
IC50 (Homo sapiens, BT-20, 72 h, BT20 (breast)): 3.06 µM
IC50 (Homo sapiens, BXPC-3, 72 h, BXPC3 (pancreas)): 4.27 µM
IC50 (Homo sapiens, C-33-A, C33A (endometrial)): 1.46 µM
IC50 (Homo sapiens, CAKI-1, 72 h, CAKI1 (kidney)): 1.58 µM
IC50 (Homo sapiens, COLO 205, 72 h, COLO205 (colon)): 1.57 µM
IC50 (Homo sapiens, COLO-678, 72 h, COLO678 (colon)): > 50 µM
IC50 (Homo sapiens, Ca-Ski, CASKI (endometrial)): 3.06 µM
IC50 (Homo sapiens, Caco-2, 72 h, CACO2 (colon)): > 50 µM
IC50 (Homo sapiens, Calu-6, 72 h, CALU6 (lung)): 3.82 µM
IC50 (Homo sapiens, DLD-1, 72 h, DLD1 (colon)): 4.02 µM
IC50 (Homo sapiens, DU-145, 72 h, DU145 (prostate)): 1.4 µM
IC50 (Homo sapiens, EFO-21, 72 h, EFO21 (ovary)): 4.59 µM
IC50 (Homo sapiens, EJ-28, 72 h, EJ28 (bladder)): 4.43 µM
IC50 (Homo sapiens, Granta-519, 72 h, GRANTA-519 (hematological)): 0.89 µM
IC50 (Homo sapiens, HCT-15, 72 h, HCT15 (colon)): 2.14 µM
IC50 (Homo sapiens, HCT-116, 72 h, HCT116 (colon)): 2.79 µM
IC50 (Homo sapiens, HEK293, 72 h, HEK293 (kidney)): > 50 µM
IC50 (Homo sapiens, HL-60, 72 h, HL-60 (hematological)): 1.63 µM
IC50 (Homo sapiens, HT-29, 72 h, HT29 (colon)): > 50 µM
IC50 (Homo sapiens, HT-1080, 72 h, HT1080 (connective tissue)): 2.78 µM
IC50 (Homo sapiens, HeLa, HELA (endometrial)): > 50 µM
IC50 (Homo sapiens, HepG2, 72 h, HEPG2 (liver)): 3.57 µM
IC50 (Homo sapiens, Hs-578T, HS578T (breast)): > 50 µM
IC50 (Homo sapiens, IGROV-1, 72 h, IGROV1 (ovary)): 2.14 µM
IC50 (Homo sapiens, IMR-90, 72 h, IMR90 (lung)): 4.16 µM
IC50 (Homo sapiens, JEG-3, 72 h, JEG3 (placenta)): > 50 µM
IC50 (Homo sapiens, JIMT-1, 72 h, JIMT1 (breast)): 2.82 µM
IC50 (Homo sapiens, K562, 72 h, K-562 (hematological)): > 50 µM
IC50 (Homo sapiens, Kasumi 1, 72 h, KASUMI-1 (hematological)): 0.37 µM
IC50 (Homo sapiens, L-363, 72 h, L-363 (hematological)): > 50 µM
IC50 (Homo sapiens, LoVo, LOVO (colon)): 2.33 µM
IC50 (Homo sapiens, MCF7, 72 h, MCF7 (breast)): > 50 µM
IC50 (Homo sapiens, MDA-MB-231, 72 h, MDAMB231 (breast)): 1.45 µM
IC50 (Homo sapiens, MDA-MB-435, 72 h, MDAMB435 (skin)): 4.74 µM
IC50 (Homo sapiens, MDA-MB-436, 72 h, MDAMB436 (breast)): > 50 µM
IC50 (Homo sapiens, MDA-MB-468, 72 h, MDAMB468 (breast)): > 50 µM
IC50 (Homo sapiens, MG-63, 72 h, MG63 (bone)): > 50 µM
IC50 (Homo sapiens, MHH-ES-1, 72 h, MHHES1 (bone)): 2.26 µM
IC50 (Homo sapiens, MIA PaCa-2, 72 h, MIAPACA2 (pancreas)): > 50 µM
IC50 (Homo sapiens, MINO, MINO (hematological)): 0.25 µM
IC50 (Homo sapiens, MV4-11, 72 h, MV4-11 (hematological)): 4.77 µM
IC50 (Homo sapiens, NCI-H23, 72 h, NCI-H23 (lung)): 7.88 µM
IC50 (Homo sapiens, NCI-H82, 72 h, NCIH82 (lung)): 3.37 µM
IC50 (Homo sapiens, NCI-H292, 72 h, NCIH292 (lung)): 5.76 µM
IC50 (Homo sapiens, NCI-H460, 72 h, NCIH460 (lung)): 2.83 µM
IC50 (Homo sapiens, OVCAR-3, 72 h, OVCAR3 (ovary)): 2.75 µM
IC50 (Homo sapiens, OVCAR-4, 72 h, OVCAR4 (ovary)): > 50 µM
IC50 (Homo sapiens, PLC-PRF-5, 72 h, PLCPRF5 (liver)): > 50 µM
IC50 (Homo sapiens, Panc1005, 72 h, PANC1005 (pancreas)): > 50 µM
IC50 (Homo sapiens, Ramos, RAMOS (hematological)): 3.01 µM
IC50 (Homo sapiens, SAOS-2, 72 h, SAOS2 (bone)): 1.12 µM
IC50 (Homo sapiens, SF-268, 72 h, SF268 (brain)): 2.77 µM
IC50 (Homo sapiens, SF-295, 72 h, SF295 (brain)): > 50 µM
IC50 (Homo sapiens, SK-BR-3, 72 h, SKBR3 (breast)): 3.5 µM
IC50 (Homo sapiens, SK-HEP1, 72 h, SKHEP1 (liver)): 2.9 µM
IC50 (Homo sapiens, SK-LMS-1, 72 h, SKLMS1 (uterus)): > 50 µM
IC50 (Homo sapiens, SK-MEL-5, 72 h, SKMEL5 (skin; SKMELS [sic] in Table 9E)): > 50 µM
IC50 (Homo sapiens, SK-MEL-28, 72 h, SKMEL28 (skin)): > 50 µM
IC50 (Homo sapiens, SK-N-AS, SKNAS (brain)): 6.05 µM
IC50 (Homo sapiens, SK-N-SH, SKNSH (brain)): 4.78 µM
IC50 (Homo sapiens, SK-OV-3, 72 h, SKOV3 (ovary)): > 50 µM
IC50 (Homo sapiens, SNB-75, 72 h, SNB75 (brain)): 4.46 µM
IC50 (Homo sapiens, SU-DHL10, 72 h, SU-DHL-10 (hematological)): 3.24 µM
IC50 (Homo sapiens, SU-DHL-6, 72 h, SU-DHL-6 (hematological)): 2.94 µM
IC50 (Homo sapiens, SW-620, 72 h, SW620 (colon)): > 50 µM
IC50 (Homo sapiens, TE-671, 72 h, TE671 (muscle)): 4.85 µM
IC50 (Homo sapiens, THP-1, 72 h, THP-1 (hematological)): 2.96 µM
IC50 (Homo sapiens, U2OS, U20S (bone; U2OS in Table 9E)): > 50 µM
IC50 (Homo sapiens, U-87 MG, U87MG (brain)): 1.06 µM
IC50 (Homo sapiens, UMUC3, 72 h, UMUC3 (bladder)): 4.2 µM
IC50 (Homo sapiens, UO-31, 72 h, UO31 (kidney)): 3.89 µM
IC50 (Homo sapiens, WSU-NHL, WSU-NHL (hematological)): 0.49 µM
IC50 (NCI-H358M, NCIH358M (lung)): 2.52 µM
IC50 (PBMC, PBMC (hematological)): > 50 µM
IC50 (RD-ES, RDES (bone)): > 50 µM
